Here are results for 20 compounds from patent US20240043439A1, “COMPOUNDS AS C5AR INHIBITORS” (Kira Pharmaceuticals (Suzhou) Ltd., priority 2020, published 2024).

Assay [1] addresses human C5a receptor (C5aR) (Homo sapiens (Human), UniProt P21730). In words: Inhibition of C5a-C5aR binding (biotinylated human C5a, U937/C5aR cells, FACS). The gist of the method:
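U937 cells stably expressing human C5aR, 3×10^6 cells/ml in PBS+0.1% BSA, were co-incubated with compound and biotinylated human C5a (30 nM, working solution) on ice for 120 min. Bound ligand was stained with FITC-streptavidin for 30 min on ice and read by flow cytometry.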

The target of assay [2] is T1, C5aR (Homo sapiens (Human), UniProt P21730). Description: Inhibition of C5a-C5aR binding determined by cell migration assay (U937/C5aR cells). Format: cell-based. Particulars: U937/C5aR cell migration towards human C5a, 180 min. On the procedure:
Migration assay was performed by using polycarbonate membrane with 3.0 µm pore (Corning). U937/C5aR cells were collected and washed twice by PBS; cells were suspended in Hank's balanced salt solution (HBSS)+1% FBS buffer at the density of 6×10^6 cells/ml. Cells were premixed with compound and added to insert well, ligand human C5a and compound were added to bottom well in order, gently mix, incubate for 30 min at 37° C., […]. Put insert plate into bottom well, migrate for 180 min at 37° C., […]. Gently remove the insert well, add 50 μl CellTiter-Glo (Promega), gently shaking for 5 min at room temperature, transfer 150 μl mixture to black plate and read luminescence intensity by
microplate reader (BioTek).

Assay [3] deals with T1, C5aR. In words: Calcium mobilization (U937/C5aR or HEK293/C5aR cells, FLIPR). Particulars: agonist human C5a at EC80, FLIPR. The assay is classed as cell-based. An outline of the steps: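 U937 or HEK293 cells expressing human C5aR, plated overnight, then preincubated 60 min with compound. After Fluo-4 Direct dye loading (50 min at 37 °C, 10 min at room temperature), intracellular calcium rise on FLIPR was triggered by human C5a agonist at EC80.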

The structures appear in SMILES notation. Where only a bound is given, the exact number is not on record here.

T1 sequence (P21730 whole entry): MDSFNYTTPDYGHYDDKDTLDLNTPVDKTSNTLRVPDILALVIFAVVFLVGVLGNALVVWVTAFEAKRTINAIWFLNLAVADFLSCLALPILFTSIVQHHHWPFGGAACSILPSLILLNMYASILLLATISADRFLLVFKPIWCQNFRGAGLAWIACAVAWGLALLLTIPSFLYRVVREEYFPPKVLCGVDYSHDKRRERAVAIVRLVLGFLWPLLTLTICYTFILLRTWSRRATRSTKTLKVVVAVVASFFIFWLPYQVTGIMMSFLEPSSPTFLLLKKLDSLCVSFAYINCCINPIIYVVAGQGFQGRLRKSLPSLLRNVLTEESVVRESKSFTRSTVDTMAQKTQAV
human C5a receptor (C5aR), sequence (P21730 whole entry): as above

`Cc1cccc(F)c1C(=O)N1C2CCC[C@@H]2C[C@H](C(=O)Nc2ccc3cccnc3c2)[C@@H]1c1ccc(NC2CCCC2)cc1` (mixture of isomers) [Compound 73, cis-2-(4-(cyclopentylamino)phenyl)-1-(2-fluoro-6-methylbenzoyl)-N-(quinolin-7-yl)octahydro-1H-cyclopenta[b]pyridine-3-carboxamide]: the IC50 (in assay [1]; at C5aR [2]; at C5aR [3]) was 0.05 to 0.5 µM in each case.

Turning to `Cc1cccc(F)c1C(=O)N1[C@@H]2CCC[C@@H]2C[C@H](C(=O)Nc2ccc3cnn(C4COC4)c3c2)[C@@H]1c1ccc(NC2CCCC2)cc1` (racemic) [Compound 59, cis-2-(4-(cyclopentylamino)phenyl)-1-(2-fluoro-6-methylbenzoyl)-N-(1-(oxetan-3-yl)-1H-indazol-6-yl)octahydro-1H-cyclopenta[b]pyridine-3-carboxamide], the IC50 in assay [1] was in the range of 0.05 to 0.5 µM; on C5aR [2] it was 0.05 to 0.5 µM; on C5aR [3], 0.5 to 2 µM.

For the compound `Cc1ccc(NC(=O)[C@H]2C[C@H]3CCC[C@H]3N(C(=O)c3c(C)cccc3F)[C@H]2c2ccc(NC3CCCC3)cc2)cc1C#N` (racemic) [Compound 62, cis-N-(3-cyano-4-methylphenyl)-2-(4-(cyclopentylamino)phenyl)-1-(2-fluoro-6-methylbenzoyl)octahydro-1H-cyclopenta[b]pyridine-3-carboxamide], the IC50 (in assay [1]; at C5aR [2]; on C5aR [3]) was 0.05 to 0.5 µM each time.

For the compound `Cc1cccc(F)c1C(=O)N1[C@@H]2CCC[C@@H]2C[C@H](C(=O)Nc2ccc3cnn(C)c3c2)[C@@H]1c1ccc(NC2CCCC2)cc1` (racemic) [Compound 66, cis-2-(4-(cyclopentylamino)phenyl)-1-(2-fluoro-6-methylbenzoyl)-N-(1-methyl-1H-indazol-6-yl)octahydro-1H-cyclopenta[b]pyridine-3-carboxamide], the IC50 on C5aR [2] was less than 0.05 µM; at C5aR [3], 0.05 to 0.5 µM.

In the case of `Cc1cccc(F)c1C(=O)N1[C@@H]2CCC[C@@H]2C[C@H](C(=O)Nc2ccc3ncoc3c2)[C@@H]1c1ccc(NC2CCCC2)cc1` (racemic) [Compound 67, cis-N-(benzo[d]oxazol-6-yl)-2-(4-(cyclopentylamino)phenyl)-1-(2-fluoro-6-methylbenzoyl)octahydro-1H-cyclopenta[b]pyridine-3-carboxamide], the IC50 was less than 0.05 µM in assay [1], 0.05 to 0.5 µM at C5aR [2] and 0.05 to 0.5 µM on C5aR [3].

Turning to `Cc1ccc(NC(=O)[C@H]2CC[C@@H]3Cc4ccccc4C(=O)N3C2c2ccc(NC3CCCC3)cc2)cc1C(F)(F)F` (relative stereo) [Compound 43, cis-4-(4-(cyclopentylamino)phenyl)-N-(4-methyl-3-(trifluoromethyl)phenyl)-6-oxo-1,3,4,6,11,11a-hexahydro-2H-pyrido[1,2-b]isoquinoline-3-carboxamide], the IC50 on C5aR [2] was more than 5 µM; at C5aR [3], 2 to 10 µM.

As for `Cc1ccc(NC(=O)C2C[C@@H]3CN(C)C[C@@H]3N(C(=O)c3c(C)cccc3F)C2c2ccc(N(C)C3CCCC3)cc2)cc1C(F)(F)F` (relative stereo) [Compound 144, cis-2-(4-(cyclopentyl(methyl)amino)phenyl)-1-(2-fluoro-6-methylbenzoyl)-6-methyl-N-(4-methyl-3-(trifluoromethyl)phenyl)octahydro-1H-pyrrolo[3,4-b]pyridine-3-carboxamide], the figures for the IC50 at C5aR [2] and on C5aR [3] were 0.05 to 0.5 µM and 2 to 10 µM, respectively.

As for `Cc1ccc(NC(=O)C2C[C@@H]3CCC[C@@H]3N(C(=O)c3c(C)cccc3F)C2c2ccc(NC3CCCC3)cc2)cc1C(F)(F)F` (relative stereo) [Compound 193, cis-2-(4-(cyclopentylamino)phenyl)-1-(2-fluoro-6-methylbenzoyl)-N-(4-methyl-3-(trifluoromethyl)phenyl)octahydro-1H-cyclopenta[b]pyridine-3-carboxamide], the IC50 on C5aR [2] is 0.05 to 0.5 µM; at C5aR [3] it was less than 0.05 µM.

Take `Cc1ccc(NC(=O)[C@H]2CCCN(C(=O)c3c(C)cccc3F)[C@H]2C2CCC3(CCOC3)CC2)cc1C(F)(F)F` (relative stereo) [Compound 203, cis-1-(2-fluoro-6-methylbenzoyl)-N-(4-methyl-3-(trifluoromethyl)phenyl)-2-(2-oxaspiro[4.5]decan-8-yl)piperidine-3-carboxamide]: the results for the IC50 on C5aR [2] and at C5aR [3] were 0.5 to 2 µM and 2 to 10 µM, respectively.

As to `Cc1ccc(NC(=O)[C@@H]2CC(O)CN(C(=O)c3c(C)cccc3F)[C@@H]2c2ccc(NC3CCCC3)cc2)cc1C(F)(F)F` (relative stereo) [Compound 204, cis-2-(4-(cyclopentylamino)phenyl)-1-(2-fluoro-6-methylbenzoyl)-5-hydroxy-N-(4-methyl-3-(trifluoromethyl)phenyl)piperidine-3-carboxamide], the IC50 on C5aR [2] fell in the range of 0.05 to 0.5 µM; on C5aR [3], 2 to 10 µM.

Take `Cc1cccc(F)c1C(=O)N1C2CCCC2CC(C(=O)Nc2ccc3c(cnn3C)c2)C1c1ccc(CN2CCC[C@@H]2C(F)(F)F)cc1` (stereo in doubt) [Compound 205, cis-1-(2-fluoro-6-methylbenzoyl)-N-(1-methyl-1H-indazol-5-yl)-2-(4-(((R)-2-(trifluoromethyl)pyrrolidin-1-yl)methyl)phenyl)octahydro-1H-cyclopenta[b]pyridine-3-carboxamide]: the IC50 at C5aR [2] was less than 0.05 µM.

On to `Cc1ccc(NC(=O)[C@H]2CCCN(S(=O)(=O)c3c(F)c(F)c(F)c(F)c3F)[C@H]2c2ccc(NC3CCCC3)cc2)cc1C(F)(F)F` [Compound 37, (2R,3S)-2-(4-(cyclopentylamino)phenyl)-N-(4-methyl-3-(trifluoromethyl)phenyl)-1-((perfluorophenyl)sulfonyl)piperidine-3-carboxamide], for which the IC50 on C5aR [2] was more than 5 µM; at C5aR [3] it was 2 to 10 µM.

Regarding `Cc1ccc(NC(=O)[C@H]2CCCN(c3ncnc4cccnc34)[C@H]2c2ccc(NC3CCCC3)cc2)cc1C(F)(F)F` [Compound 161, (2R,3S)-2-(4-(cyclopentylamino)phenyl)-N-(4-methyl-3-(trifluoromethyl)phenyl)-1-(pyrido[3,2-d]pyrimidin-4-yl)piperidine-3-carboxamide], the results for the IC50 (in assay [1]; at C5aR [3]) were 0.05 to 0.5 µM and 2 to 10 µM, respectively.

On to `Cc1ccc(NC(=O)[C@H]2CCCN(c3nccc4cccnc34)[C@H]2c2ccc(N(C(=O)OCc3ccccc3)C3CCCC3)cc2)cc1C(F)(F)F` [Compound 164, benzyl cyclopentyl(4-((2R,3S)-3-((4-methyl-3-(trifluoromethyl)phenyl)carbamoyl)-1-(1,7-naphthyridin-8-yl)piperidin-2-yl)phenyl)carbamate], for which the IC50 is 2 to 5 µM on C5aR [2] and 2 to 10 µM on C5aR [3].

Regarding `Cc1ccc(NC(=O)[C@H]2CCCN(c3ncnc4cccnc34)[C@H]2c2ccc(N(C(=O)OCc3ccccc3)C3CCCC3)cc2)cc1C(F)(F)F` [Compound 166, benzyl cyclopentyl(4-((2R,3S)-3-((4-methyl-3-(trifluoromethyl)phenyl)carbamoyl)-1-(pyrido[3,2-d]pyrimidin-4-yl)piperidin-2-yl)phenyl)carbamate], the IC50 in assay [1] lay within 2 to 5 µM; on C5aR [3], 2 to 10 µM.

Regarding `Cc1ccc(NC(=O)[C@H]2CCCN[C@H]2c2ccc(N(c3nccc4cccnc34)C3CCCC3)cc2)cc1C(F)(F)F` [Compound 168, (2R,3S)-2-(4-(cyclopentyl(1,7-naphthyridin-8-yl)amino)phenyl)-N-(4-methyl-3-(trifluoromethyl)phenyl)piperidine-3-carboxamide], the IC50 on C5aR [2] was more than 5 µM; on C5aR [3] it was 2 to 10 µM.

On to `Cc1cccc(F)c1C(=O)N1CCC[C@H](c2nc3cc(C(C)(C)C)ccc3o2)[C@@H]1c1ccc(NC2CCCC2)cc1` [Compound 181, ((2R,3S)-3-(5-(tert-butyl)benzo[d]oxazol-2-yl)-2-(4-(cyclopentylamino)phenyl)piperidin-1-yl)(2-fluoro-6-methylphenyl)methanone], for which the IC50 is more than 5 µM at C5aR [2] and 2 to 10 µM on C5aR [3].

With `Cc1ccc(NC(=O)[C@H]2CCCN(C(=O)c3c(C)noc3C)[C@H]2c2ccc(NC3CCCC3)cc2)cc1C(F)(F)F` [Compound 190, (2R,3S)-2-(4-(cyclopentylamino)phenyl)-1-(3,5-dimethylisoxazole-4-carbonyl)-N-(4-methyl-3-(trifluoromethyl)phenyl)piperidine-3-carboxamide], the IC50 in assay [1] is 0.5 to 2 µM; on C5aR [3], 2 to 10 µM.

Consider `Cc1ccc(NC(=O)[C@H]2CCCN[C@H]2c2ccc(NC3CCCC3)cc2)cc1C(F)(F)F` [Compound 200, (2R,3S)-2-(4-(cyclopentylamino)phenyl)-N-(4-methyl-3-(trifluoromethyl)phenyl)piperidine-3-carboxamide], for which the IC50 in assay [1] is more than 5 µM; at C5aR [3] it was 2 to 10 µM.

Take `Cc1cccc(F)c1C(=O)N1C2CCCC2CC(C(=O)Nc2ccc3c(c2)CCN(C(=O)OC(C)(C)C)C3)C1c1ccc(NC2CCCC2)cc1` (stereo not drawn) [Compound 202, tert-butyl 6-cis-2-(4-(cyclopentylamino)phenyl)-1-(2-fluoro-6-methylbenzoyl)octahydro-1H-cyclopenta[b]pyridine-3-carboxamido)-3,4-dihydroisoquinoline-2(1H)-carboxylate]: the IC50 in assay [1] was more than 5 µM; at C5aR [3], 2 to 10 µM.

One may read the IC50 as the midpoint of a concentration-inhibition curve.
